# Data from patent US20200179488A1, “Secretin Receptor Agonists to Treat Diseases or Disorders of Energy Homeostasis” (Technische Universität München, priority 2016, published 2020).
# Experiments:
# Format in all cases: cell-based, Mus musculus
# [1] = system: primary brown adipocytes from UCP1 knockout mice; experiment: Microplate respirometry (oxygen consumption rate) in primary brown adipocytes from UCP1 knockout mice
# Procedure: For culturing primary adipocytes male 129S1/SvImJ mice ([…] or UCP1-KO mice and wildtype littermates) at the age of 5-6 weeks were used for the dissection of inguinal and epidydimal white adipose tissue and interscapular brown adipose tissue depots. The tissue was carefully minced and treated with collagenase for 45 min at 37° C. The homogenate was filtered through a 250 μm nylon mesh and centrifuged at 500 g to collect the stromal vascular fraction (SVF). The SVF cell pellet was rinsed and seeded into XF96 V3-PS cell culture microplate (Seahorse Bioscience). After reaching confluency, induction medium containing 10% fetal bovine serum (FBS), 0.5 mM isobutylmethylxanthine, 125 nM indomethacin, 1 mM dexamethasone, 850 nM insulin and 1 nM T3 was added. After 2 days of induction, cells were maintained in differentiation media (10% FBS, 850 nM insulin and 1 nM T3). Medium was changed every two days. Respiration was measured on day 7 of differentiation. For determination of mRNA levels cells were stimulated at the 7th day of differentiation for 6 hours with secretin (rat, Tocris, Art Nr 1919) or isoproterenol (Sigma-Aldrich, Art Nr. 16504-100MG) and harvested subsequently. Oxygen consumption rate (OCR) was measured at 37° C. using a microplate respirometer (XF96 extracellular flux analyzer, Seahorse Bioscience). At day 7, the differentiation medium was replaced with prewarmed, unbuffered assay medium (DMEM basal medium supplemented with 25 mM glucose, 2 mM sodium pyruvate, 31 mM NaCl, 2 mM GlutaMax and 15 mg/l phenol red, pH 7.4) containing 2% of essentially fatty acid free bovine serum albumin (BSA), and incubated at 37° C. in a room air incubator for 1 h. Basal respiration was measured in untreated cells. […] Maximum respiratory capacity was assessed after FCCP (Sigma-Aldrich) addition (1 μM). […] Oxygen consumption rates were calculated using the Seahorse XF-96 software. […] For induction of OCR by isoproterenol, secretin or FCCP the highest values measured after addition of the respective molecule was used. The “OCR in % of basal OCR” and “OCR in % of FCCP OCR” were calculated as follows: Method: To test whether SCT can activate thermogenesis in brown adipocytes, we measured UCP1-mediated uncoupled respiration in cultured adherent intact primary brown adipocytes, according to a protocol recently established in our lab (Li Y, Fromme T, Schweizer S, Schöttl T, Klingenspor M. EMBO Rep. 2014 October; 15(10):1069-76. doi: 10.15252/embr.201438775; […]. Meaningful respirometric measurements of UCP1-mediated thermogenesis. Biochimie. 2017 March; 134:56-61. doi: 10.1016/j.biochi.2016.12.005.). The cellular oxygen consumption rate (OCR) of primary adipocytes was determined using an XF96 Extracellular Flux Analyzer (Seahorse Bioscience). […]
# UCP1 expression = experiment: UCP1 mRNA expression (qRT-PCR) in primary adipocytes from inguinal white adipose tissue; conditions: 0.1 μM secretin or 0.5 μM isoproterenol, 6 hours, normalized to TFIIB (FIG. 4A)
# Procedure: For culturing primary adipocytes male 129S1/SvImJ mice ([…] or UCP1-KO mice and wildtype littermates) at the age of 5-6 weeks were used for the dissection of inguinal and epidydimal white adipose tissue and interscapular brown adipose tissue depots. The tissue was carefully minced and treated with collagenase for 45 min at 37° C. The homogenate was filtered through a 250 μm nylon mesh and centrifuged at 500 g to collect the stromal vascular fraction (SVF). The SVF cell pellet was rinsed and seeded into XF96 V3-PS cell culture microplate (Seahorse Bioscience). After reaching confluency, induction medium containing 10% fetal bovine serum (FBS), 0.5 mM isobutylmethylxanthine, 125 nM indomethacin, 1 mM dexamethasone, 850 nM insulin and 1 nM T3 was added. […] Respiration was measured on day 7 of differentiation. […] RNA was eluted in 50 μl nuclease-free water and RNA concentration was determined spectrophotometrically (Infinite 200 PRO NanoQuant, Tecan, Männedorf/Switzerland). Reverse transcription into cDNA was performed with 500 ng RNA in a final volume of 10 μl (Quantitect Reverse Transcription Kit, Quiagen, Hilden/Germany). qRT-PCR was conducted on 384 well plates in a total volume of 12.5 μl comprising 6.25 μl SensiMix SYBR No-ROX (Bioline, London/UK), 250 nM forward and reverse primers, and 1 μl template cDNA (LightCycler 480 System, Roche Diagnostics, Rotkreuz/Switzerland). […]
# primary brown adipocytes = experiment: Microplate respirometry (oxygen consumption rate) in differentiated primary brown adipocytes of wildtype mice; conditions: for stimulation of UCP1-mediated thermogenesis (uncoupled respiration): SCT 10 nM, ISO 500 nM, N=5 (FIG. 10A)
# Procedure: For culturing primary adipocytes male 129S1/SvImJ mice ([…] or UCP1-KO mice and wildtype littermates) at the age of 5-6 weeks were used for the dissection of inguinal and epidydimal white adipose tissue and interscapular brown adipose tissue depots. The tissue was carefully minced and treated with collagenase for 45 min at 37° C. The homogenate was filtered through a 250 μm nylon mesh and centrifuged at 500 g to collect the stromal vascular fraction (SVF). The SVF cell pellet was rinsed and seeded into XF96 V3-PS cell culture microplate (Seahorse Bioscience). After reaching confluency, induction medium containing 10% fetal bovine serum (FBS), 0.5 mM isobutylmethylxanthine, 125 nM indomethacin, 1 mM dexamethasone, 850 nM insulin and 1 nM T3 was added. After 2 days of induction, cells were maintained in differentiation media (10% FBS, 850 nM insulin and 1 nM T3). Medium was changed every two days. Respiration was measured on day 7 of differentiation. For determination of mRNA levels cells were stimulated at the 7th day of differentiation for 6 hours with secretin (rat, Tocris, Art Nr 1919) or isoproterenol (Sigma-Aldrich, Art Nr. 16504-100MG) and harvested subsequently. Oxygen consumption rate (OCR) was measured at 37° C. using a microplate respirometer (XF96 extracellular flux analyzer, Seahorse Bioscience). At day 7, the differentiation medium was replaced with prewarmed, unbuffered assay medium (DMEM basal medium supplemented with 25 mM glucose, 2 mM sodium pyruvate, 31 mM NaCl, 2 mM GlutaMax and 15 mg/l phenol red, pH 7.4) containing 2% of essentially fatty acid free bovine serum albumin (BSA), and incubated at 37° C. in a room air incubator for 1 h. Basal respiration was measured in untreated cells. Coupled respiration was inhibited by oligomycin treatment (5 μM). […] Maximum respiratory capacity was assessed after FCCP (Sigma-Aldrich) addition (1 μM). Finally, mitochondrial respiration was blocked by antimycin A (Sigma-Aldrich) (5 μM) treatment and the residual OCR was considered to be due to non-mitochondrial reactions. Oxygen consumption rates were calculated using the Seahorse XF-96 software. Data were exported and reconstructed in GraphPad Prism 4.0 software. For each condition the lowest OCR after antimycin A addition was subtracted from all other values. Respiration rates following oligomycin addition were defined as basal OCR. For induction of OCR by isoproterenol, secretin or FCCP the highest values measured after addition of the respective molecule was used. The “OCR in % of basal OCR” and “OCR in % of FCCP OCR” were calculated as follows: Method: To test whether SCT can activate thermogenesis in brown adipocytes, we measured UCP1-mediated uncoupled respiration in cultured adherent intact primary brown adipocytes, according to a protocol recently established in our lab (Li Y, Fromme T, Schweizer S, Schöttl T, Klingenspor M. EMBO Rep. 2014 October; 15(10):1069-76. doi: 10.15252/embr.201438775; […]. Meaningful respirometric measurements of UCP1-mediated thermogenesis. Biochimie. 2017 March; 134:56-61. doi: 10.1016/j.biochi.2016.12.005.). The cellular oxygen consumption rate (OCR) of primary adipocytes was determined using an XF96 Extracellular Flux Analyzer (Seahorse Bioscience). Briefly, primary adipocytes were cultured and differentiated in XF96 microplates. At day 7 of differentiation, cells were washed once with prewarmed, unbuffered assay medium (DMEM basal medium supplemented with 25 mM glucose, 31 mM NaCl, 2 mM GlutaMax and 15 mg/l phenol red, pH 7.4) (basal assay medium) and then the medium was replaced with basal assay medium containing 1-2% essentially fatty acid free bovine serum albumin (BSA), and incubated at 37° C. in a room air incubator for 1 h. The drug injections ports of the sensor cartridges were loaded with the assay reagents at 10× in basal assay medium (no BSA). All respiration assays were performed in the presence of bovine serum albumin to buffer free fatty acid levels in the respiration medium. […]
substance,measurement,setting,value
secretin,induction of respiration in cells from UCP1 knockout mice,"[1]; 129/S1 background, FIG. 3",lacking
same,response of respiration in UCP1 knockout brown adipocytes,"[1]; SCT 10 nM, ISO 500 nM (FIG. 10B)",did not respond
same,UCP1 mRNA expression in white adipocytes versus PBS,UCP1 expression,increased the expression of UCP1
same,increase of OCR above basal OCR,"primary brown adipocytes; 0.5 μM, after oligomycin, day 7 of differentiation (FIG. 2B)",about 200%
same,uncoupled OCR as share of maximal uncoupled OCR induced by FCCP,"primary brown adipocytes; 0.5 μM, day 7 of differentiation (FIG. 2C)",about 75%
same,induction of oxygen consumption in cells from wildtype control mice,"primary brown adipocytes; 129/S1 background, FIG. 3",increase in oxygen consumption
same,stimulation of UCP1-mediated thermogenesis (uncoupled respiration),primary brown adipocytes,activate UCP1-dependent thermogenesis
same,stimulation of UCP1-mediated thermogenesis (uncoupled respiration),primary brown adipocytes; listed as SCT,as potent as ISO (500 nM)
same,dose dependence and potency of activation of uncoupled respiration,"primary brown adipocytes; compared to isoproterenol, data not shown",dose-dependent with a higher potency at lower concentrations as compared to isoproterenol
